# Assay results reported in patent publication US20120165310A1, “ETHER DERIVATIVES OF BICYCLIC HETEROARYLS” (NOVARTIS AG, priority 2009, published 2012).
# pIC50: −log10 of the molar value.
# Molecular target: T1, IGF-1R (Homo sapiens, UniProt P08069)
# T1 construct: expressed in transfected cells; host or cells: Hek293 (Hek293-IGF1R)
# Test: Cellular IGF-1R assay: capture ELISA (MSD) of receptor phosphorylation in Hek293 cells
# Assay type: cell-based
# Settings: Hek293-IGF1R cells, 1 h pre-incubation, 10 min IGF stimulation, pIGF1R capture ELISA
# Procedure, shortened: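 IC50 from 4-parameter fit of IGF1R phosphorylation, normalised to IGF-stimulated and unstimulated controls, measured by MSD capture ELISA on lysates. Hek293-IGF1R cells in starvation medium got compound 1 h (top 10 μM, 3-fold steps, 0.1% DMSO) before a 10 min pulse of 1.0 ng/μL IGF.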
# T1 sequence (P08069 31-1367): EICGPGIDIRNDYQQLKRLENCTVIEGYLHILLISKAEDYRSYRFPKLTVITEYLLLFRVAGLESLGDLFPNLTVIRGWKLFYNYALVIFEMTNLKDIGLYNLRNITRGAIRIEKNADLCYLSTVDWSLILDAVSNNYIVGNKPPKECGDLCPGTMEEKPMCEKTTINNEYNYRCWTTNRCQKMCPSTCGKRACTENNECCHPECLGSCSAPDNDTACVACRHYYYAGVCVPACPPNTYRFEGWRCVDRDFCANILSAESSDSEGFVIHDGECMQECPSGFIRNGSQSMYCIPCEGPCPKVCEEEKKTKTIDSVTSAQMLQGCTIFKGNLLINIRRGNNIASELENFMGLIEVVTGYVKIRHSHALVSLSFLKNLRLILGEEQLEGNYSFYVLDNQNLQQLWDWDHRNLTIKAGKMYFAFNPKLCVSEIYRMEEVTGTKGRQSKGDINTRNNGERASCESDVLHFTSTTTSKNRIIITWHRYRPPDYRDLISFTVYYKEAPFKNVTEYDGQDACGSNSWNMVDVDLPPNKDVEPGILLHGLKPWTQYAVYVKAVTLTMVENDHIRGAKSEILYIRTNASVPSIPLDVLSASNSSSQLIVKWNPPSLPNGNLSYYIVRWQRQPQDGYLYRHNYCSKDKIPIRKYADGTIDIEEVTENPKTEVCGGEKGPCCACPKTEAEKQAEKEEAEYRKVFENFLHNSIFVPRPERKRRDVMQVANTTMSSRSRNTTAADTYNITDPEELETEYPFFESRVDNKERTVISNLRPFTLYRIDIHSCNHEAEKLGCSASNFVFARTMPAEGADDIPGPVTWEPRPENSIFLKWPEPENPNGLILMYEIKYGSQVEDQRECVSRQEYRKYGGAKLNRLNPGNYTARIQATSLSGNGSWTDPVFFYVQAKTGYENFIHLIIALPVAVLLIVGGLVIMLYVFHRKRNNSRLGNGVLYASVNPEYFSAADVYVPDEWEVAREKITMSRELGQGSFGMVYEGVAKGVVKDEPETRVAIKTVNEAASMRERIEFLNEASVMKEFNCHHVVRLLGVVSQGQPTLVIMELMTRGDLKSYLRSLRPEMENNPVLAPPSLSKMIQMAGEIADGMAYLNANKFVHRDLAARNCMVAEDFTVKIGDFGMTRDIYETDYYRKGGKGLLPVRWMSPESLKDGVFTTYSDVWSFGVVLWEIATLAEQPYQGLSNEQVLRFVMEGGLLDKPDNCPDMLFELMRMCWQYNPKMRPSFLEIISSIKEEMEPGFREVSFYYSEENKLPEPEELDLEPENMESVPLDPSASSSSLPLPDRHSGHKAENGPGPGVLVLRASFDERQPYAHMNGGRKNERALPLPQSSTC
row,pIC50,Compound
1,6.65,"Nc1ncnc2c1c(-c1cccc(OCC34CCC(CC3)O4)c1)cn2[C@H]1CC[C@@H](N2CCC(F)(F)CC2)CC1 [Example 116, 5-(3-(7-oxabicyclo[2.2.1]heptan-1-ylmethoxy)phenyl)-7-((1S,4S)-4-(4,4-difluoropiperidin-1-yl)cyclohexyl)-7H-pyrrolo[2,3-d]pyrimidin-4-amine]"
2,7.82 to 8.00,"Nc1ncnc2c1c(-c1cccc(OCC34CCC(CC3)O4)c1)cn2C1CC(CN2CC3CC2C[S+]3[O-])C1 (single isomer, unassigned) [Example 228]"
3,7.10,"CN1CCC(N2CC[C@@H](n3cc(-c4cccc(OCC56CCC(CC5)O6)c4)c4c(N)ncnc43)C2)CC1 [Example 216, 7-[(R)-1-(1-Methyl-piperidin-4-yl)-pyrrolidin-3-yl]-5-[3-(7-oxa-bicyclo[2.2.1]hept-1-ylmethoxy)-phenyl]-7H-pyrrolo[2,3-d]pyrimidin-4-ylannine]"
4,7.74,"Nc1ncnc2c1c(-c1cccc(OCC34CCC(CC3)O4)c1)cn2[C@H]1C[C@@H](CN2CC[C@@H](O)C2)C1 [Example 214, (R)-1-(cis-3-{4-Amino-5-[3-(7-oxa-bicyclo[2.2.1]hept-1-ylmethoxy)-phenyl]-pyrrolo[2,3-d]pyrimidin-7-yl}-cyclobutylmethyl)-pyrrolidin-3-ol]"
5,7.82,"Nc1ncnc2c1c(-c1cccc(OCC34CCC(CC3)O4)c1)cn2C1CC(CN2CC[C@@H](O)C2)C1 (stereo partly drawn) [Example 213, (R)-1-(3-{4-Amino-5-[3-(7-oxa-bicyclo[2.2.1]hept-1-ylmethoxy)-phenyl]-pyrrolo[2,3-d]pyrimidin-7-yl}-cyclobutylmethyl)-pyrrolidin-3-ol]"
6,6.55,"CSC[C@H]1C[C@@H](n2cc(-c3cccc(OC[C@H]4CCCCO4)c3)c3c(N)ncnc32)C1 (relative stereo) [Example 152, 7-(cis-3-methylsuphanylmethyl-cyclobutyl)-5-{3-[(R)-1-(tetrahydro-pyran-2-yl)methoxy]-phenyl}-7H-pyrrolo[2,3-d]pyrimidin-4-ylamine]"
7,6.57,"Nc1ncnc2c1c(-c1cccc(OCC34CCC(CC3)O4)c1)cn2[C@H]1CC[C@H](c2cnco2)CC1 [Example 151, 5-(3-(7-oxabicyclo[2.2.1]heptan-1-ylmethoxy)phenyl)-7-((1R,4S)-4-(oxazol-5-yl)cyclohexyl)-7H-pyrrolo[2,3-d]pyrimidin-4-a mine]"
8,6.49,"Nc1ncnc2c1c(-c1cccc(OCC34CCC(CC3)O4)c1)cn2[C@H]1CC[C@@H](CN2CCNC(=O)C2)CC1 [Example 129, 4-(((1S,4S)-4-(5-(3-(7-oxabicyclo[2.2.1]heptan-1-ylmethoxy)phenyl)-4-amino-7H-pyrrolo[2,3-d]pyrimidin-7-yl)cyclohexyl)methyl)piperazin-2-one]"
9,6.80,"Nc1ncnc2c1c(-c1cccc(OCC34CCC(CC3)O4)c1)cn2C1CCC(O)(CNC2CC2)CC1 [Example 117, (1R,4R)-4-(5-(3-(7-oxabicyclo[2.2.1]heptan-1-ylmethoxy)phenyl)-4-amino-7H-pyrrolo[2,3-d]pyrimidin-7-yl)-1-((cyclopropylamino)methyl)cyclohexanol]"
10,7.22 to 7.35,"Nc1ncnc2c1c(-c1cccc(OCC34CCC(CC3)O4)c1)cn2C1CC(CN2CCC2)C1 (stereo not shown) [Example 23, 7-(3-azetidin-1-ylmethyl-cyclobutyl)-5-[3-(7-oxa-bicyclo[2.2.1]hept-1-ylmethoxy)-phenyl]-7H-pyrrolo[2,3-d]pyrimidin-4-ylamine]"
11,6.95,"CC(=O)NN[C@H]1C[C@@H](n2cc(-c3cccc(OCC45CCC(CC4)O5)c3)c3c(N)ncnc32)C1 (relative stereo) [Example 193, Acetic acid N′-(cis-3-{4-amino-5-[3-(7-oxa-bicyclo[2.2.1]hept-1-ylmethoxy)-phenyl]-pyrrolo[2,3-d]pyrimidin-7-yl}-cyclobutyl)-hydrazide]"
12,6.64,"N#Cc1ccnc(N[C@H]2CC[C@@H](n3cc(-c4cccc(OCC56CCC(CC5)O6)c4)c4c(N)ncnc43)CC2)c1 [Example 145, 2-((1S,4S)-4-(5-(3-(7-oxabicyclo[2.2.1]heptan-1-ylmethoxy)phenyl)-4-amino-7H-pyrrolo[2,3-d]pyrimidin-7-yl)cyclohexylamino)isonicotinonitrile]"
13,6.43,"Nc1ncnc2c1c(-c1cccc(OCC34CCC(CC3)O4)c1)cn2C1CCC(N2CCC(O)C2)CC1 [Example 127, (S)-1-((1S,4S)-4-(5-(3-(7-oxabicyclo[2.2.1]heptan-1-ylmethoxy)phenyl)-4-amino-7H-pyrrolo[2,3-d]pyrimidin-7-yl)cyclohexyl)pyrrolidin-3-ol]"
14,6.51,"NC(=O)[C@H]1CCCN1CC1(O)CC(n2cc(-c3cccc(OCC45CCC(CC4)O5)c3)c3c(N)ncnc32)C1 (stereo partly drawn) [Example 212, (R)-(E)-1-(3-{4-Amino-5-[3-(7-oxa-bicyclo[2.2.1]hept-1-ylmethoxy)-phenyl]-pyrrolo[2,3-d]pyrimidin-7-yl}-1-hydroxy-cyclobutylmethyl)-pyrrolidine-2-carboxylic acid amide]"
15,6.46,"Nc1ncnc2c1c(-c1cccc(OCC3CCCCO3)c1)cn2C1CC(CN2CC[C@@H](F)C2)C1 (stereo partly drawn) [Example 27, 7-[3-((R)-3-fluoro-pyrrolidin-1-ylmethyl)-cyclobutyl]-5-[3-(tetrahydro-pyran-2-ylmethoxy)-phenyl]-7H-pyrrolo[2,3-d]pyrimidin-4-ylamine]"
16,6.65,"Nc1ncnc2c1c(-c1cccc(OCC34CCC(CC3)O4)c1)cn2C1CC(O)(CN2CCCC2CO)C1 (single isomer, unassigned) [Example 211]"
17,6.82,"Nc1ncnc2c1c(-c1cccc(OCC34CCC(CC3)O4)c1)cn2[C@H]1CC[C@@H](N2CC[C@@H](O)C2)CC1 [Example 128, (R)-1-((1S,4S)-4-(5-(3-(7-oxabicyclo[2.2.1]heptan-1-ylmethoxy)phenyl)-4-amino-7H-pyrrolo[2,3-d]pyrimidin-7-yl)cyclohexyl)pyrrolidin-3-ol]"
18,6.27,"Nc1ncnc2c1c(-c1cccc(OCC3CCCCO3)c1)cn2[C@H]1C[C@@H](CN2CCC[C@@H]2C(=O)O)C1 (stereo partly drawn) [Example 90, 1-(cis-3-{4-amino-5-[3-(tetrahydro-pyran-2-ylmethoxy)-pheny]-pyrrolo[2,3-d]pyrimidin-7-yl}-cyclobutylmethyl)-pyrrolidine-2-carboxylic acid]"
19,7.28,"CC1(C)CCC(COc2cccc(-c3cn([C@H]4C[C@@H](CN5CCC(F)CC5)C4)c4ncnc(N)c34)c2)O1 (single isomer, unassigned) [Example 74, 5-[3-(5,5-dimethyl-tetrahydro-furan-2-ylmethoxy)-phenyl]-7-[cis-3-(4-fluoro-piperidin-1-ylmethyl)-cyclobutyl]-7H-pyrrolo[2,3-d]pyrimidin-4-ylamine]"
20,6.23,"Nc1ncnc2c1c(-c1cccc(OCC34CCC(CC3)O4)c1)cn2[C@H]1CC[C@@H](NC(=O)CC(F)(F)F)CC1 [Example 144, N-((1S,4S)-4-(5-(3-(7-oxabicyclo[2.2.1]heptan-1-ylmethoxy)phenyl)-4-amino-7H-pyrrolo[2,3-d]pyrimidin-7-yl)cyclohexyl)-3,3,3-trifluoropropanamide]"
21,6.50,"Nc1ncnc2c1c(-c1cccc(OCC3CCCO3)c1)cn2[C@H]1C[C@H](CN2CCS(=O)(=O)CC2)C1 (relative stereo) [Example 89, 7-[trans-3-(1,1-Dioxothiomorpholin-4-ylmethyl)-cyclobutyl]-5-[3-(tetrahydro-furan-2-ylmethoxy)-phenyl]-7H-pyrrolo[2,3-d]pyrimidin-4-ylamine]"
22,7.00,"CN1CCN([C@H]2CC[C@@H](n3cc(-c4cccc(OCC56CCC(CC5)O6)c4)c4c(N)ncnc43)CC2)CC1 [Example 109, 5-(3-(7-oxabicyclo[2.2.1]heptan-1-ylmethoxy)phenyl)-7-((1S,4S)-4-(4-methylpiperazin-1-yl)cyclohexyl)-7H-pyrrolo[2,3-d]pyrimidin-4-amine]"
23,7.01,"Nc1ncnc2c1c(-c1cccc(OCC34CCC(CC3)O4)c1)cn2C1CCC(CN2CCS(=O)(=O)CC2)CC1 (stereo not shown) [Example 111, 7-[4-(1,1-Dioxo-thiomorpholin-4-ylmethyl)-cyclohexyl]-5-[3-(7-oxa-bicyclo[2.2.1]hept-1-ylmethoxy)-phenyl]-7H-pyrrolo[2,3-d]pyrimidin-4-ylamine]"
24,7.39,"CC1(C)CCC(COc2cccc(-c3cn([C@H]4C[C@@H](CN5CC(O)C5)C4)c4ncnc(N)c34)c2)O1 (relative stereo) [Example 41, 1-(cis-3-{4-amino-5-[3-(5,5-dimethyl-tetrahydro-furan-2-ylmethoxy)-phenyl]-pyrrolo[2,3-d]pyrimidin-7-yl}-cyclobutylmethyl)-azetidin-3-ol]"
25,6.65,"CC1(C)CCC(COc2cccc(-c3cn(C4CC(CN5CCC(F)C5)C4)c4ncnc(N)c34)c2)O1 (single isomer, unassigned) [Example 39]"
26,7.82 to 8.15,"NC(=O)[C@@H]1CCCN1C[C@H]1C[C@@H](n2cc(-c3cccc(OC[C@@H]4CCCCO4)c3)c3c(N)ncnc32)C1 [Example 44, (S)-1-[3-(4-amino-5-{3-[(S)-1-(tetrahydro-pyran-2-yl)methoxy]-phenyl}-pyrrolo[2,3-d]pyrimidin-7-yl)-cyclobutylmethyl]-pyrrolidine-2-carboxylic acid amide]"
27,6.62,"CC(=O)N[C@H]1CC[C@@H](n2cc(-c3cccc(OCC45CCC(CC4)O5)c3)c3c(N)ncnc32)CC1 [Example 133, N-((1S,4S)-4-(5-(3-(7-oxabicyclo[2.2.1]heptan-1-ylmethoxy)phenyl)-4-amino-7H-pyrrolo[2,3-d]pyrimidin-7-yl)cyclohexyl)acetamide]"
28,7.47,"CC1(C)CCC(COc2cccc(-c3cn(C4CC(CN5CC(F)C5)C4)c4ncnc(N)c34)c2)O1 (stereo not drawn) [Example 47, 5-[trans-3-(5,5-dimethyl-tetrahydro-furan-2-ylmethoxy)-phenyl]-7-[3-(3-fluoro-azetidin-1-ylmethyl)-cyclobutyl]-7H-pyrrolo[2,3-d]pyrimidin-4-ylamine]"
